{"source": "patent US11180474B2", "about": "(BRISTOL-MYERS SQUIBB COMPANY, priority 2016, dated 2021)", "key": {"[1]": {"test_system": "TLR7", "assay": "In vivo mouse TLR7 PD model (gardiquimod challenge, plasma IL-6)", "conditions": "oral", "protocol": "In Vivo Mouse TLR7 and TLR9 PD Model:\nAdult male C57BL/6 mice were used for the experiments. Mice (7 to 10 per group) were randomized into different treatment groups based on body weight. Mice from the respective treatment groups were administered orally with vehicle or test compound. Thirty min after the oral administration of vehicle or test compound, mice were challenged with intraperitoneal injection of gardiquimod for TLR7 PD model and CpG-ODN for TLR9 PD model. Ninety minutes after gardiquimod injection and 120 minutes after CpG-ODN injection, mice were bled under isoflurane anaesthesia and plasma IL-6 level was estimated by using commercially available ELISA kit (BD Biosciences). At the end of experiment, mean cytokine data was plotted and one way ANOVA with Dunnett's test was performed to calculate the significance of test compound treated group vs. vehicle control group. Percent inhibition of cytokine induction was calculated for test compound treated group vs vehicle control group."}, "[2]": {"molecular_target": "T1, human TLR9 (Homo sapiens, UniProt Q9NR96)", "T1 construct": "host or cells: HEK-Blue cells", "T1 sequence (Q9NR96 26-1032)": "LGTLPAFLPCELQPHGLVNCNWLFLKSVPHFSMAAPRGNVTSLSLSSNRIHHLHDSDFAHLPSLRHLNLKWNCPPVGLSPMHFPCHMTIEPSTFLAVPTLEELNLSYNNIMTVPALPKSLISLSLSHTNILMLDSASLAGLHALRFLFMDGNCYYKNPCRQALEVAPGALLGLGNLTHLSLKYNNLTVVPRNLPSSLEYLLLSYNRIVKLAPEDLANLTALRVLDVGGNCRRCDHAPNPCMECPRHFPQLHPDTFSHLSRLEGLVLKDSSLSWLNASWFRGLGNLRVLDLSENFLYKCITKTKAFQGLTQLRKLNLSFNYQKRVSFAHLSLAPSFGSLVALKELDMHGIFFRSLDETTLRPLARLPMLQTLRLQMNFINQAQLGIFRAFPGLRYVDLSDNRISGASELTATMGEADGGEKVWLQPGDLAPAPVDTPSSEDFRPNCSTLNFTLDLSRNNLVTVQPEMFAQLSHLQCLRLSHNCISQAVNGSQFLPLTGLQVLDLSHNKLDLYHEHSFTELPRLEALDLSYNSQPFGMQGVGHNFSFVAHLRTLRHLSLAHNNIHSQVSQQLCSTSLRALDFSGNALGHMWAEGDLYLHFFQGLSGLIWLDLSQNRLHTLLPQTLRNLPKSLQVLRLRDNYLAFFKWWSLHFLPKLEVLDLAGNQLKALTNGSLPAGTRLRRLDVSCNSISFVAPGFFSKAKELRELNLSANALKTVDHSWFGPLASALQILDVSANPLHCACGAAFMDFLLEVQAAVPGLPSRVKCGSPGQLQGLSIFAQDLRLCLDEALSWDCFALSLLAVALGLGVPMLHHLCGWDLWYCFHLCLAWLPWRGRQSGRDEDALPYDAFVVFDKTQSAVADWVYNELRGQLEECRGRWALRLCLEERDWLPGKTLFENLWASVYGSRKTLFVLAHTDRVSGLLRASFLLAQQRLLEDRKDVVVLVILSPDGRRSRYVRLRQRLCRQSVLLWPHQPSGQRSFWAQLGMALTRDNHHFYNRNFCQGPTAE", "assay": "TLR9 inhibition reporter assay (HEK-Blue cells, SEAP reporter, ODN2006 stimulation)", "type": "cell-based", "conditions": "HEK-Blue cells overexpressing human TLR9, ODN2006 5 nM", "summary_of_the_method": "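Dose–response from 0.05 nM to 50 μM was run in HEK-Blue human TLR7, TLR8 and TLR9 reporter cells. After 30 min at room temperature with compound, ligand was added (TLR7 gardiquimod 7.5 μM; TLR8 R848 15.9 μM; TLR9 ODN2006 5 nM) and SEAP measured next day, at 22 h.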"}}, "note": "pIC50: −log10 of the molar value."}
{"smiles": "COc1ccc(-c2[nH]c3ccc(C4CCN(CC(=O)N(C)C)CC4)cc3c2C(C)C)cc1OC", "note": "[Example 312, 2-(4-(2-(3,4-dimethoxyphenyl)-3-isopropyl-11H-indol-5-yl)piperidin-1-yl)-N,N-dimethylacetamide]", "values": [{"measurement": "% inhibition of IL6", "setting": "[1]; dose 0.001 mg/kg", "value": 34, "unit": "%"}, {"measurement": "% inhibition of IL6", "setting": "[1]; dose 0.01 mg/kg", "value": 39, "unit": "%"}, {"measurement": "% inhibition of IL6", "setting": "[1]; dose 0.1 mg/kg", "value": 59, "unit": "%"}, {"measurement": "% inhibition of IL6", "setting": "[1]; dose 1 mg/kg", "value": 82, "unit": "%"}, {"measurement": "pIC50", "setting": "[2]", "value": 5.86}]}
{"smiles": "COc1ccc(-c2[nH]c3ccc(C4CCN(C(=O)CN5CCC[C@@H](C(=O)N6CCN(CCN7CCCC7)CC6)C5)CC4)cc3c2C(C)C)cc1OC", "note": "[Example 307, (R)-1-(4-(2-(3,4-dimethoxyphenyl)-3-isopropyl-1H-indol-5-yl)piperidin-1-yl)-2-(3-(4-(2-(pyrrolidin-1-yl)ethyl)piperazine-1-carbonyl)piperidin-1-yl)ethan-1-one]", "values": [{"measurement": "pIC50", "setting": "[2]", "value": 6.24}]}
{"smiles": "COc1ccc(-c2[nH]c3ccc(C4CCN(C(=O)CN5CCCC(CO)C5)CC4)cc3c2C(C)C)cc1OC", "note": "(stereo not shown) [Example 226, 1-(4-(2-(3,4-dimethoxyphenyl)-3-isopropyl-1H-indol-5-yl)piperidin-1-yl)-2-(3-(hydroxymethyl)piperidin-1-yl)ethan-1-one]", "values": [{"measurement": "pIC50", "setting": "[2]", "value": 5.85}]}
{"smiles": "COc1ccc(-c2[nH]c3ccc(C4CCN(C(=O)CN5CCC[C@H](C(=O)NC(C)C)C5)CC4)cc3c2C(C)C)cc1OC", "note": "[Example 285, (S)-1-(2-(4-(2-(3,4-dimethoxyphenyl)-3-isopropyl-1H-indol-5-yl)piperidin-1-yl)-2-oxoethyl)-N-isopropylpiperidine-3-carboxamide]", "values": [{"measurement": "pIC50", "setting": "[2]", "value": 5.31}]}
{"smiles": "COc1ccc(-c2[nH]c3ccc(C4CCN(C(=O)CN5CCC[C@H](C(=O)NCCNC(C)=O)C5)CC4)cc3c2C(C)C)cc1OC", "note": "[Example 295, (S)—N-(2-acetamidoethyl)-1-(2-(4-(2-(3,4-dimethoxyphenyl)-3-isopropyl-1H-indol-5-yl)piperidin-1-yl)-2-oxoethyl) piperidine-3-carboxamide]", "values": [{"measurement": "pIC50", "setting": "[2]", "value": 5.27}]}
{"smiles": "COc1ccc(-c2[nH]c3ccc(C4CCN(C(=O)CN5CCC[C@@H](C(=O)N6CCC(CCO)CC6)C5)CC4)cc3c2C(C)C)cc1OC", "note": "[Example 306, (R)-1-(4-(2-(3,4-dimethoxyphenyl)-3-isopropyl-1H-indol-5-yl)piperidin-1-yl)-2-(3-(4-(2-hydroxyethyl)piperidine-1-carbonyl)piperidin-1-yl)ethan-1-one]", "values": [{"measurement": "pIC50", "setting": "[2]", "value": 5.57}]}
{"smiles": "COc1ccc(-c2[nH]c3ccc(C4CCN(Cc5cncn5C)CC4)cc3c2C(C)C)cc1OC", "note": "[Example 258, 2-(3,4-dimethoxyphenyl)-3-isopropyl-5-(1-((1-methyl-1H-imidazol-5-yl)methyl)piperidin-4-yl)-1H-indole]", "values": [{"measurement": "pIC50", "setting": "[2]", "value": 5.84}]}
{"smiles": "COc1ccc(-c2[nH]c3ccc(C4CCN(C(=O)CNC[C@H](O)CO)CC4)cc3c2C(C)C)cc1OC", "note": "[Example 235, (S)-2-((2,3-dihydroxypropyl)amino)-1-(4-(2-(3,4-dimethoxyphenyl)-3-isopropyl-1H-indol-5-yl)piperidin-1-yl)ethan-1-one]", "values": [{"measurement": "pIC50", "setting": "[2]", "value": 6.11}]}
{"smiles": "COc1ccc(-c2[nH]c3ccc(C4CCN(CC(=O)N5CCN(C)CC5)CC4)cc3c2C(C)C)cc1OC", "note": "[Example 274, 2-(4-(2-(3,4-dimethoxyphenyl)-3-isopropyl-1H-indol-5-yl)piperidin-1-yl)-1-(4-methylpiperazin-1-yl) ethan-1-one]", "values": [{"measurement": "pIC50", "setting": "[2]", "value": 6.08}]}
